From patent publication US20260085315A1, “POLYNUCLEOTIDE COMPOSITIONS AND METHODS FOR TREATMENT OF CANCER” (APTAH BIO, INC., priority 2023, published 2026)
d = 2'-deoxy (DNA); m = 2'-O-methyl

Tests used:
MCF-7 cell line = experiment: Cell cycle assay (propidium iodide, flow cytometry); assay type: cell-based, Human; details: 0.25 and 0.5 μM; 48 hours; only statistically significant alteration
Method: Cell cycle assays were performed to understand how the ASMO APT20TTMG affects the cell cycle of MCF-7 cell line and its potential mechanisms of action. Initially, cells were plated in 12-well plates at a density of 5×10^4 cells/well and cultured for 24 hours for adhesion and then treated with three different concentrations of APT20TTMG (0.25, 0.5 and 1.0 μM) for 48 hours. After, cells were collected using a solution of trypsin/EDTA and washed with 2.0 mL of PBS buffer followed by centrifugation at 1500 rpm for 5 minutes. Then, the cells were fixed with ice-cold 70% ethanol and incubated overnight at 4° C. After that, cells were washed again with 2.0 mL of PBS and incubated with Propidium Iodide solution (50 μg/mL) and RNAse (200 μg/mL) for 1 hour at room temperature and protected from light. Finally, the cells were analyzed in a flow cytometer (BD FACSCanto II, BD Biosciences), through the acquisition of 10.000 gated events considering each sample.

Ki67 = Ki67 immunohistochemistry of tumor samples; assay type: in vivo, athymic nude mice; details: treated groups vs non-treated control
Method: Immunohistochemistry analysis of Ki67 in tumor samples was also performed. Quantification of the Ki67 in the sections was carried out by visual estimation (Ki67+ve) using two approaches: count of Ki-67 positive tumor cells and Ki67 total area. This process was done using ImageJ public domain software. In the case of the Ki67 total area evaluation, the ImageJ threshold function was used and each image was split into its constituent red, blue and green grayscale images. Further, one of these was selected and processed for threshold values. Values were selected so that the relevant areas (Ki67+ve cells, in this case) were highlighted and the % of area occupied by the selected threshold limits measured.
As shown in FIG. 35A-B, graphs present the individual values of protein quantification of tumors from 8 animals. (A) Ki-67 area, (B) Ki-67 positive tumor cells count.

Substance: APT20TTMG: engineered polynucleotide ASMO1, 24 nt, SEQ ID NO: 3 gtccactaacctttcaggccagcg; targeting moieties 5′-GTCCA-3′ and 5′-CG-3′, U1 snRNP recruiting moiety (GTCCACTAACCTTTCAGGCCAGCG; sugars from the 5' end m5 d14 m5, all phosphorothioate, methylation of C and T or U not given here)
- cells in S phase of cell cycle (MCF-7 cell line): lower concentration of cells
- Ki67 (positive tumor cell count and total area) (Ki67): did not detect any statistical differences
